Series [1] relates to TNFα production in human whole blood. The experiment in a line: Inhibitory activity on LPS-induced TNFα production in human whole blood. To be noted: LPS stimulation, 37° C., 5 hours. The series is classed as cell-based. The procedure:
Inhibitory activities of the arylmethylene urea derivatives according to the present invention to the production of TNFα induced by stimulation with a lipopolysaccharide (LPS) were investigated using human whole blood.
After mixing each of the compounds of the present invention with human blood in a 96-well flat-bottom plate, the lipopolysaccharide (LPS) was added and the mixture was allowed to react at 37° C. for 5 hours. After the reaction, the resulting mixture was centrifuged at room temperature for 15 minutes, and supernatant of the resultant was recovered. For the quantification of TNFα in the supernatant, human cytokine kit (CIS biointernational) was used.

Series [2] concerns rhythmic bladder contractions. The experiment in a line: Rhythmic bladder contractions model in anesthetized rats. The series is classed as in vivo, SD rats. To be noted: i.v., 10 mg/kg; 10 minutes before and after administration; FIG. 2. From the text:
Using anesthetized rat rhythmic bladder contractions model, the inhibitory effect of the arylmethylene urea derivatives of the present invention on the detrusor hyperreflexia was investigated.
Female SD rats were anesthetized with an intraperitoneal injection of urethane (1.0 g/kg). A polyethylene tube was inserted from external urethral orifice into the bladder and the tube was fixed by ligating. The other end of the tube was equipped with a three-necked cock, and one of the necks thereof was connected to a pressure transducer for the measurement of intravesical pressure and the other neck was connected to a syringe for the infusion of physiological saline into the bladder. Thirty minutes after the surgery was completed, physiological saline in appropriate volume was infused via the tube in order to induce rhythmic bladder contractions. After stable rhythmic bladder contractions were obtained, a solution of each test compound or the solvent thereof was administered from a caudal vein in a volume of 0.5 mL/kg, and the effect on the frequency of bladder contractions was investigated. As the test compounds, the compounds of Examples 2 and 9 were used.
In each of the figures, the ordinate indicates the number of rhythmic bladder contractions for 10 minutes before and after administration of the compound.

The test system of a further series is DSS-induced colitis. The experiment in a line: Dextran sulfate sodium (DSS)-induced colitis model of mice, rectal bleeding score. Format: in vivo, BALB/c mice. Conditions: 30 mg/kg orally every day from Day 27 to Day 31; for amelioration of symptoms / improvement in the rectal bleeding score (in words): Day 32; for rectal bleeding score on Day 32 (0: occult blood-negative, 2: occult blood-positive, 4: apparent bleeding): female BALB/c mice, 3 w/v % DSS. The procedure: (§1) Female BALB/c mice (Japan SLC) of 7 to 9 weeks old were allowed to freely drink 3 w/v % dextran sulfate sodium (DSS) for 5 to 7 days, and then to freely drink sterilized distilled water for 5 days. This procedure was repeated 3 times to induce colitis. The uninduced (background) group was allowed to freely drink sterilized distilled water. The compound described in Example 2 was orally administered to the mice at a dose of 30 mg/kg every day from Day 27 to Day 31 counted from the start of the test, and rectal bleeding was scored (0: occult blood-negative, 2: occult blood-positive, 4: apparent bleeding) by using the method described by Murthy et al (see, for example, Dig Dis Sci., 38, 1722 (1993)).
On the other hand, the same test as in Example 452 was repeated except that 1-(4-(pyridin-4-yloxy)benzyl)-3-(3-t-butylisoxazol-5-yl)urea (the structural formula thereof is shown below) which is a compound included in WO 04/037789 was used in place of the compound of Example 2. The score on Day 32 (the last day of the test) of the colitis-uninduced group was 0, while the score of the colitis-induced group rose to 1.2±0.2.
as §1, with “Example 10” for “Example 2”
On the other hand, the same test as in Example 453 was repeated except that 1-(4-(pyridin-4-yloxy)benzyl)-3-([…])urea (the structural formula thereof is shown below) which is a compound included in WO 04/037789 was used in place of the compound of Example 10. The score on Day 32 (the last day of the test) of the colitis-uninduced group was 0, while the score of the colitis-induced group rose to 1.2±0.2.

The values below come from patent US20100016319A1, “ARYLMETHYLENE UREA DERIVATIVE AND USE THEREOF” (TORAY INDUSTRIES, INC. a corporation of Japan, priority 2005, published 2010).

One may read the IC50 as the concentration that gives 50% inhibition. Low values mean greater potency, high ones weaker potency. One may read the melting point as the temperature, or range, at which the solid turns liquid.

`Cc1ccc(-n2nc(C(C)(C)C)cc2NC(=O)NCc2ccccc2Oc2ccnc(NCCCN3CCCC3=O)n2)cc1` [Example 6, 1-(2-(2-(3-(2-oxo-pyrrolidin-1-yl)propylamino)pyrimidin-4-yloxy)benzyl)-3-(3-t-butyl-1-p-tolyl-1H-pyrazol-5-yl)urea] yielded an IC50 in series [1] of 119 nM.
In series [1], `Cc1ccc(-n2nc(C(C)(C)C)cc2NC(=O)NCc2cc(F)ccc2Oc2ccnc(N3CCOCC3)n2)cc1` [Example 9, 1-(2-(2-morpholinopyrimidin-4-yloxy)-5-fluorobenzyl)-3-(3-t-butyl-1-p-tolyl-1H-pyrazol-5-yl)urea] displayed an IC50 of 231 nM. For the same compound, the “effect on the number of rhythmic bladder contractions” value in series [2] is reported as “inhibited the rhythmic bladder contractions statistically significantly”.
`Cc1ccc(-n2nc(C(C)(C)C)cc2NC(=O)NCc2ccccc2Oc2ccnc(N3CCN(C)CC3)n2)cc1` [Example 7, 1-(2-(2-(4-methylpiperazin-1-yl)pyrimidin-4-yloxy)benzyl)-3-(3-t-butyl-1-p-tolyl-1H-pyrazol-5-yl)urea] showed a melting point of 149.5 °C. Besides, half-maximal inhibition in series [1] (IC50) required 296 nM.
With `CC(=O)N1CCN(c2nccc(Oc3ccccc3CNC(=O)Nc3cc(C(C)(C)C)nn3-c3ccc(C)cc3)n2)CC1` [Example 10, 1-(2-(2-(4-acetylpiperazin-1-yl)pyrimidin-4-yloxy)benzyl)-3-(3-t-butyl-1-p-tolyl-1H-pyrazol-5-yl)urea], in series [1], the midpoint of inhibition, the IC50, lay at 1040 nM. Also, in the series with DSS-induced colitis, the “amelioration of symptoms / improvement in the rectal bleeding score (in words)” value (“amelioration of symptoms / improvement” for short) is recorded as “marked amelioration of symptoms was observed” and the “rectal bleeding score on Day 32 (0: occult blood-negative, 2: occult blood-positive, 4: apparent bleeding)” value turned out to be 0.6±0.3.
The compound `Cc1ccc(-n2nc(C(C)(C)C)cc2NC(=O)NCc2ccccc2Oc2cc(N3CCCC(C(N)=O)C3)ncn2)cc1` (stereo not shown) [Example 82, 1-(6-(2-(3-(5-t-butyl-2-p-tolyl-2H-pyrazol-3-yl)-ureidomethyl)phenoxy)pyrimidin-4-yl)piperidin-3-carboxylic amide] gave a half-maximal inhibitory concentration (IC50) in series [1] of 354 nM.
`Cc1ccc(-n2nc(C(C)(C)C)cc2NC(=O)NCc2ccccc2Oc2ccnc(NCCC3CCCN3C)n2)cc1` (stereo not shown) [Example 20, 1-(2-(2-(2-(1-methylpyrrolidin-2-yl)ethylamino)pyrimidin-4-yloxy)benzyl)-3-(3-t-butyl-1-p-tolyl-1H-pyrazol-5-yl)urea] had an IC50 in series [1] of 343 nM.
Compound `Cc1ccc(-n2nc(C(C)(C)C)cc2NC(=O)NCc2ccccc2Oc2cc(C)nc(N3CCOCC3)n2)cc1` [Example 98, 1-(2-(6-methyl-2-morpholinopyrimidin-4-yloxy)benzyl)-3-(3-t-butyl-1-p-tolyl-1H-pyrazol-5-yl)urea] gave an IC50 in series [1] of 298 nM.
For the compound `CC(C)(C)c1cc(NC(=O)NCc2ccc(Oc3ccncc3)cc2)no1` [reference compound], in the series on DSS-induced colitis, the “amelioration of symptoms / improvement” value is reported as “improvement in the score was not observed” and the “rectal bleeding score on Day 32 (0: occult blood-negative, 2: occult blood-positive, 4: apparent bleeding)” value stood at 1.3±0.3.
For `CC(C)(C)c1cc(NC(=O)NCc2ccc(Oc3ccncc3)cc2)on1` [1-(4-(pyridin-4-yloxy)benzyl)-3-(3-t-butylisoxazol-5-yl)urea, reference compound], in the series with DSS-induced colitis, the “amelioration of symptoms / improvement” value is reported as “improvement in the score was not observed” and the “rectal bleeding score on Day 32 (0: occult blood-negative, 2: occult blood-positive, 4: apparent bleeding)” value was 1.1±0.2.
`Cc1ccc(-n2nc(C(C)(C)C)cc2NC(=O)NCc2ccccc2Oc2ccnc(N3CCC(C(N)=O)CC3)n2)cc1` [Example 14, 1-(4-(2-(((((3-t-butyl-1-p-tolyl-1H-pyrazol-5-yl)amino)carbonyl)amino)methyl)phenoxy)pyrimidin-2-yl)-piperidin-4-carboxylic amide] came in with an IC50 in series [1] of 458 nM.
Still for that read-out and setting: to `Cc1ccc(-n2nc(C(C)(C)C)cc2NC(=O)NCc2ccccc2Oc2ccnc(NCCCN(C)C)n2)cc1` [Example 11, 1-(2-(2-(3-(dimethylamino)propylamino)pyrimidin-4-yloxy)benzyl)-3-(3-t-butyl-1-p-tolyl-1H-pyrazol-5-yl)urea] belongs 249 nM; to `Cc1ccc(-n2nc(C(C)(C)C)cc2NC(=O)NCc2ccccc2Oc2ccnc(N3CCCC(C(N)=O)C3)n2)cc1` (stereo not shown) [Example 13, 1-(4-(2-(((((3-t-butyl-1-p-tolyl-1H-pyrazol-5-yl)amino)carbonyl)amino)methyl)phenoxy)pyrimidin-2-yl)-piperidin-3-carboxylic amide], 496 nM.
As for `COc1cc(-n2nc(C(C)(C)C)cc2NC(=O)NCc2ccccc2Oc2ccnc(N3CCOCC3)n2)ccc1C` [Example 56, 1-(2-(2-morpholinopyrimidin-4-yloxy)benzyl)-3-(3-t-butyl-1-(3-methoxy-4-methylphenyl)-1H-pyrazol-5-yl)urea], 485 nM corresponded to half-maximal inhibition in series [1] (IC50).
Consider `Cc1ccc(-n2nc(C(C)(C)C)cc2NC(=O)NCc2ccccc2Oc2cc(N3CCOCC3)ncn2)cc1` [Example 5, 1-(2-(6-morpholinopyrimidin-4-yloxy)benzyl)-3-(3-t-butyl-1-p-tolyl-1H-pyrazol-5-yl)urea], for which the melting point came out at 128.5 °C. The compound also returned a 50% inhibitory concentration (IC50) in series [1] of 843 nM.
Turning to `CCN(CC)CCCNc1nccc(Oc2ccccc2CNC(=O)Nc2cc(C(C)(C)C)nn2-c2ccc(C)cc2)n1` [Example 18, 1-(2-(2-(3-(diethylamino)propylamino)pyrimidin-4-yloxy)benzyl)-3-(3-t-butyl-1-p-tolyl-1H-pyrazol-5-yl)urea], 311 nM corresponded to half-maximal inhibition in series [1] (IC50).
As for `Cc1ccc(-n2nc(CC(C)(C)C)cc2NC(=O)NCc2ccccc2Oc2ccnc(N3CCOCC3)n2)cc1` [Example 28, 1-(2-(2-morpholinopyrimidin-4-yloxy)benzyl)-3-(3-neopentyl-1-p-tolyl-1H-pyrazol-5-yl)urea], in series [1], the IC50 was 513 nM.
With `Cc1ccc(-n2nc(C(C)(C)C)cc2NC(=O)NCc2cc(F)cc(C)c2Oc2ccnc(Cl)n2)cc1` [Example 85, 1-(2-(2-chloropyrimidin-4-yloxy)-3-methyl-5-fluorobenzyl)-3-(3-t-butyl-1-p-tolyl-1H-pyrazol-5-yl)urea], in series [1], half-maximal inhibition (IC50) required 422 nM.
Still for that read-out and setting: the same measure for `COCCN1CCN(c2nccc(Oc3ccccc3CNC(=O)Nc3cc(C(C)(C)C)nn3-c3ccc(C)cc3)n2)CC1` [Example 12, 1-(2-(2-(4-(2-methoxyethyl)piperazin-1-yl)pyrimidin-4-yloxy)benzyl)-3-(3-t-butyl-1-p-tolyl-1H-pyrazol-5-yl)urea]: 268 nM.
